Format in all cases: cell-based
For experiment [1], the target named is T1, M1 muscarinic receptor (Homo sapiens, UniProt P11229).
T1 construct: expressed in transfected cells; host or cells: CHO (M1-CHO)
T1 sequence (P11229 1-460): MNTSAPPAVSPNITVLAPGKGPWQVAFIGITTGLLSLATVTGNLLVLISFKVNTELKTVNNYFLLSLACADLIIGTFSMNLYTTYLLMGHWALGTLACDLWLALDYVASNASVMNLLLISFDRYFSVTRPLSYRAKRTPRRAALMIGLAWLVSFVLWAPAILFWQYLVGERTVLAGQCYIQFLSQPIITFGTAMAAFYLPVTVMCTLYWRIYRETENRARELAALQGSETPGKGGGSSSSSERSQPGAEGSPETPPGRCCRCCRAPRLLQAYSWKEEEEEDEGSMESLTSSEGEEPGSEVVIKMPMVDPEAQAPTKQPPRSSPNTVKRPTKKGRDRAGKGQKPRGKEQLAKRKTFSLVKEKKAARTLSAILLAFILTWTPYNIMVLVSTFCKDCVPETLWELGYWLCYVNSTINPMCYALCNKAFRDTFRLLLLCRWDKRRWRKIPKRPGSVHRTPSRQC
Description: Functional mobilization of intracellular calcium (FLIPR), M1-CHO cells. The conditions noted are these: for Emax: 100% efficacy = maximum response obtained with the Carbachol control; for M1 Activity: M1-CHO cells, calcium mobilization (FLIPR). The method, boiled down: (§1)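 CHO cells expressing human M1–M4 receptors loaded with Fluo-3 AM or Calcium 3 dye (1 mM probenecid, pH 7.4); 0.5% DMSO final. Agonist mode: compound added directly; antagonist mode: 15 min pre-incubation or co-application, then carbachol at EC80. Fluorescence read 60 s on FLIPR; efficacy relative to carbachol maximum.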
(In general: A change in cytosolic calcium serves as a functional read-out for many receptors and channels.)

Experiment [2] deals with T2, M2 muscarinic receptor (Homo sapiens, UniProt P08172).
T2 construct: expressed in transfected cells; host or cells: CHO (M2-CHO)
T2 sequence (P08172 1-466): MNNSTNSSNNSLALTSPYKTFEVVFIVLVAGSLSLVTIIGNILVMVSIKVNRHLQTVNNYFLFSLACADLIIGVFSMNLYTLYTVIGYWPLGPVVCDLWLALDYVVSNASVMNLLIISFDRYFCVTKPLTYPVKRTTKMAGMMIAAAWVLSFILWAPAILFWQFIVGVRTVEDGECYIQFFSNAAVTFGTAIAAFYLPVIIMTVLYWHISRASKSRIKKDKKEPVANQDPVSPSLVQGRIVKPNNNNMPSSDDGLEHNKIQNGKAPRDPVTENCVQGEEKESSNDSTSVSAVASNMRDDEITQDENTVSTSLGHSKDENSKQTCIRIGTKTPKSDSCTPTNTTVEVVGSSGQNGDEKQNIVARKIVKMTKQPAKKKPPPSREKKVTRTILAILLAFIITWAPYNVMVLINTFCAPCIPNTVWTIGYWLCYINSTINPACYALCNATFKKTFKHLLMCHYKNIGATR
Put plainly: Functional mobilization of intracellular calcium (FLIPR), M2-CHO cells. The following applies: for Emax: 100% efficacy = maximum response obtained with the Carbachol control; for M2 Activity: M2-CHO cells, calcium mobilization (FLIPR). Summed up:
as §1

Experiment [3] deals with T3, M3 muscarinic receptor (Homo sapiens, UniProt P20309).
T3 construct: expressed in transfected cells; host or cells: CHO (M3-CHO)
T3 sequence (P20309 whole entry): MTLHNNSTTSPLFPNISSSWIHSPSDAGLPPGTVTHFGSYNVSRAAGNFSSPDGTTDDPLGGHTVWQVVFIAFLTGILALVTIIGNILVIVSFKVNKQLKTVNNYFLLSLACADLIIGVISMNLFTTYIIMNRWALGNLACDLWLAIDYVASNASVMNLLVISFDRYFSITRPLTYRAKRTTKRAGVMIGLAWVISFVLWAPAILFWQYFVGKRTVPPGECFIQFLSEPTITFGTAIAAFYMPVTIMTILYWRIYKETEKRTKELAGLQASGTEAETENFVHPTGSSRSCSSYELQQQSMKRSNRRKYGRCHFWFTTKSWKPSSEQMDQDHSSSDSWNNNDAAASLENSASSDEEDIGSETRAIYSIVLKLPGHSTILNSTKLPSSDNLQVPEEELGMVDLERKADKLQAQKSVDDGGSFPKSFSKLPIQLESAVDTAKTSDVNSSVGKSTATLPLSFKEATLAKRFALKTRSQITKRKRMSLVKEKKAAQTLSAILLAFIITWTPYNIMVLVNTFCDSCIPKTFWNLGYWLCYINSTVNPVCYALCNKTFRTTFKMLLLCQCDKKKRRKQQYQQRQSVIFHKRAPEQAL
Description: Functional mobilization of intracellular calcium (FLIPR), M3-CHO cells. The conditions noted are these: for Emax: 100% efficacy = maximum response obtained with the Carbachol control; for M3 Activity: M3-CHO cells, calcium mobilization (FLIPR). The method, boiled down: as §1

Experiment [4] concerns the target T4, M4 muscarinic receptor (Homo sapiens, UniProt P08173).
T4 construct: expressed in transfected cells; host or cells: CHO (M4-CHO)
T4 sequence (P08173 1-479): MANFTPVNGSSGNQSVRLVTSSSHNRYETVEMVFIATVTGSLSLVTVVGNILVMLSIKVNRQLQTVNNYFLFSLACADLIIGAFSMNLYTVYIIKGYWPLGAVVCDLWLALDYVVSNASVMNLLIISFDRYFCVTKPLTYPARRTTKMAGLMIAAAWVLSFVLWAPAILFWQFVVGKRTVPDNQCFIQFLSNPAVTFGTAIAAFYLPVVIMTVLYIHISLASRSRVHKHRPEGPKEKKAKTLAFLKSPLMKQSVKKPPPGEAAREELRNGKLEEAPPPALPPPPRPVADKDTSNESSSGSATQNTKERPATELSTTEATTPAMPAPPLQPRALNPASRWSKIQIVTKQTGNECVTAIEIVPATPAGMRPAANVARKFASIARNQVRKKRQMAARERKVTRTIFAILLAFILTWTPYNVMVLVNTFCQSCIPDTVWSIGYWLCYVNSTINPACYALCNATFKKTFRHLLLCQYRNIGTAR
Description: Functional mobilization of intracellular calcium (FLIPR), M4-CHO cells. The following applies: for Emax: 100% efficacy = maximum response obtained with the Carbachol control; for M4 Activity: M4-CHO cells, calcium mobilization (FLIPR). Summed up:
as §1

Here are results for twelve compounds from patent US7880007B2, “Bicyclic substituted phenyl piperidine modulators of muscarinic receptors” (Vertex Pharmaceuticals Incorporated, priority 2004, dated 2011).

In general, Emax refers to the maximal effect, on the per cent scale that the assay sets.

Turning to `Clc1cccc(C2CCN(C3CC4CCC(C4)C3)CC2)c1` (centres unmarked) [Compound 133], in experiment [1], the maximal effect (Emax) lay within 25 to 100% and the “M1 Activity” value is listed as “+ (activity was measured to be greater than 5.0 μM)”. Besides, in experiment [2], the maximal effect (Emax) was under 25% and the “M2 Activity” value is “+ (activity was measured to be greater than 5.0 μM)”. Besides, in experiment [3], the Emax is under 25% and the “M3 Activity” value was “+ (activity was measured to be greater than 5.0 μM)”. Besides, in experiment [4], the Emax was in the range of 25 to 100% and the “M4 Activity” value is “+++ (activity was measured to be less than 1.0 μM)”.
For `COc1ccc(F)cc1C1(F)CCN(C[C@H]2C[C@H]3C=C[C@H]2C3)CC1` [Compound 134], in experiment [1], the maximum response (Emax) was 25 to 100% and the “M1 Activity” value is “++ (activity was measured to be from 1.0 μM to 5.0 μM)”. In addition, in experiment [2], the Emax fell in the range of 25 to 100% and the “M2 Activity” value is on record as “++ (activity was measured to be from 1.0 μM to 5.0 μM)”. Also, in experiment [3], the Emax was under 25% and the “M3 Activity” value is “+ (activity was measured to be greater than 5.0 μM)”. In experiment [4], the Emax was 25 to 100% and the “M4 Activity” value is given as “+++ (activity was measured to be less than 1.0 μM)”.
As to `Cc1ccc(C)c(C2(O)CCN(C3CC4CCC3C4)CC2)c1` (centres unmarked) [Compound 135], in experiment [1], the maximal effect (Emax) was in the range of 25 to 100% and the “M1 Activity” value is “+ (activity was measured to be greater than 5.0 μM)”. In experiment [2], the maximum response (Emax) was under 25% and the “M2 Activity” value was “+ (activity was measured to be greater than 5.0 μM)”. Also, in experiment [3], the “M3 Activity” value was “+ (activity was measured to be greater than 5.0 μM)”. For the same compound, in experiment [4], the maximal response (Emax) was under 25% and the “M4 Activity” value is on record as “+ (activity was measured to be greater than 5.0 μM)”.
In the case of `COc1ccccc1C1CCN(C2CC(C)(C)CC(C)(C)C2)CC1` [Compound 138], in experiment [1], the maximum response (Emax) was under 25% and the “M1 Activity” value is reported as “+ (activity was measured to be greater than 5.0 μM)”. Moreover, in experiment [2], the Emax is under 25% and the “M2 Activity” value is “+ (activity was measured to be greater than 5.0 μM)”. Besides, in experiment [3], the maximal effect (Emax) is under 25% and the “M3 Activity” value is on record as “+ (activity was measured to be greater than 5.0 μM)”. For the same compound, in experiment [4], the maximal response (Emax) was under 25% and the “M4 Activity” value is reported as “+ (activity was measured to be greater than 5.0 μM)”.
With `COc1ccc(-c2ccccc2C2CCN([C@H]3C[C@H]4CC[C@H]3C4)CC2)c(OC)c1` [Compound 139], in experiment [1], the Emax was in the range of 25 to 100% and the “M1 Activity” value is on record as “+ (activity was measured to be greater than 5.0 μM)”. Further, in experiment [2], the Emax was under 25% and the “M2 Activity” value is reported as “+ (activity was measured to be greater than 5.0 μM)”. In experiment [3], the Emax is under 25% and the “M3 Activity” value is “+ (activity was measured to be greater than 5.0 μM)”. In addition, in experiment [4], the maximum response (Emax) lay in the range of 25 to 100% and the “M4 Activity” value is on record as “++ (activity was measured to be from 1.0 μM to 5.0 μM)”.
As for `COc1ccc(Cl)cc1C1(OC)CCN(C[C@H]2C[C@H]3C=C[C@@H]2C3)CC1` [Compound 140, 1-(((1S,2S,4S)-bicyclo[2.2.1]hept-5-en-2-yl)methyl)-4-(5-chloro-2-methoxyphenyl)-4-methoxypiperidine], in experiment [1], the Emax was in the range of 25 to 100% and the “M1 Activity” value is recorded as “++ (activity was measured to be from 1.0 μM to 5.0 μM)”. Also, in experiment [2], the maximal effect (Emax) was in the range of 25 to 100% and the “M2 Activity” value is given as “++ (activity was measured to be from 1.0 μM to 5.0 μM)”. In experiment [3], the maximum response (Emax) is under 25% and the “M3 Activity” value is “+ (activity was measured to be greater than 5.0 μM)”. Besides, in experiment [4], the Emax is 25 to 100% and the “M4 Activity” value is listed as “+++ (activity was measured to be less than 1.0 μM)”.
With `Clc1ccc(-c2ccccc2C2CCN([C@H]3C[C@H]4CC[C@H]3C4)CC2)cc1` [Compound 142], in experiment [1], the Emax lay within 25 to 100% and the “M1 Activity” value was “+ (activity was measured to be greater than 5.0 μM)”. In experiment [2], the Emax is 25 to 100% and the “M2 Activity” value is given as “+ (activity was measured to be greater than 5.0 μM)”. Also, in experiment [3], the maximal response (Emax) was under 25% and the “M3 Activity” value is reported as “+ (activity was measured to be greater than 5.0 μM)”. Also, in experiment [4], the maximal response (Emax) fell in the range of 25 to 100% and the “M4 Activity” value is “++ (activity was measured to be from 1.0 μM to 5.0 μM)”.
For the compound `COc1ccc(-c2cccc(Cl)c2)cc1C1CCN([C@@H]2C[C@H]3CC[C@H]2C3)CC1` [Compound 143], in experiment [1], the Emax is under 25% and the “M1 Activity” value is reported as “+ (activity was measured to be greater than 5.0 μM)”. Moreover, in experiment [2], the Emax was under 25% and the “M2 Activity” value is recorded as “+ (activity was measured to be greater than 5.0 μM)”. Besides, in experiment [3], the Emax is under 25% and the “M3 Activity” value is reported as “+ (activity was measured to be greater than 5.0 μM)”. In experiment [4], the maximal response (Emax) lay in the range of 25 to 100% and the “M4 Activity” value is on record as “+ (activity was measured to be greater than 5.0 μM)”.
In the case of `COc1ccc(-c2cccc(C(N)=O)c2)cc1C1CCN([C@@H]2C[C@H]3CC[C@H]2C3)CC1` [Compound 144], in experiment [1], the maximum response (Emax) is under 25% and the “M1 Activity” value is listed as “+ (activity was measured to be greater than 5.0 μM)”. Moreover, in experiment [2], the Emax was under 25% and the “M2 Activity” value is on record as “+ (activity was measured to be greater than 5.0 μM)”. Further, in experiment [3], the Emax was under 25% and the “M3 Activity” value was “+ (activity was measured to be greater than 5.0 μM)”. Also, in experiment [4], the maximal response (Emax) was under 25% and the “M4 Activity” value is recorded as “+ (activity was measured to be greater than 5.0 μM)”.
With `CCOC(=O)N1CCC(CN2CCC(c3cc(-c4ccc(S(C)(=O)=O)cc4)ccc3OC)CC2)CC1` [Compound 146], in experiment [1], the Emax was in the range of 25 to 100% and the “M1 Activity” value is listed as “+++ (activity was measured to be less than 1.0 μM)”. In experiment [2], the maximal effect (Emax) was under 25% and the “M2 Activity” value is given as “+ (activity was measured to be greater than 5.0 μM)”. Besides, in experiment [3], the maximal effect (Emax) is under 25% and the “M3 Activity” value is reported as “+ (activity was measured to be greater than 5.0 μM)”. Also, in experiment [4], the maximal effect (Emax) lay within 25 to 100% and the “M4 Activity” value was “+++ (activity was measured to be less than 1.0 μM)”.
Regarding `c1ccc(C2CCN([C@H]3C[C@H]4CC[C@H]3C4)CC2)c(OCC2CCCCO2)c1` (some centres unmarked) [Compound 147], in experiment [1], the maximal effect (Emax) was 25 to 100% and the “M1 Activity” value was “++ (activity was measured to be from 1.0 μM to 5.0 μM)”. In experiment [2], the maximum response (Emax) was 25 to 100% and the “M2 Activity” value is “++ (activity was measured to be from 1.0 μM to 5.0 μM)”. In addition, in experiment [3], the maximal response (Emax) was under 25% and the “M3 Activity” value is on record as “+ (activity was measured to be greater than 5.0 μM)”. Also, in experiment [4], the maximum response (Emax) fell in the range of 25 to 100% and the “M4 Activity” value is listed as “+++ (activity was measured to be less than 1.0 μM)”.
Turning to `COc1ccc(-c2cccnc2)cc1C1CCN([C@H]2C[C@H]3CC[C@H]2C3)CC1` [Compound 148], in experiment [1], the Emax was under 25% and the “M1 Activity” value is “+ (activity was measured to be greater than 5.0 μM)”. For the same compound, in experiment [2], the Emax was under 25% and the “M2 Activity” value is “+ (activity was measured to be greater than 5.0 μM)”. For the same compound, in experiment [3], the Emax is under 25% and the “M3 Activity” value is on record as “+ (activity was measured to be greater than 5.0 μM)”. Besides, in experiment [4], the Emax was under 25% and the “M4 Activity” value is “+ (activity was measured to be greater than 5.0 μM)”.
